# How the values were obtained:
# [1] = system: muscle injury model rats (incised masseter muscles on both sides); experiment: Electrophysiological experiment (masseter EMG, Lissajous pattern), Example 1; format: in vivo, Jcl:SD rats; details: 1 week postoperatively
# Protocol: (§1) Incisions were made in masseter muscles on both sides in Jcl:SD rats (10 weeks old). Immediately after muscle incision, 1 mL each of the SV peptide (20 ng/mL) was intramuscularly administered into several sites surrounding the cut surfaces. The incision on each side was made along a straight line connecting the lateral angle of the eye and the mandibular angle, extending in depth from the fascia on the skin side to the lateral periosteum on the mandibular ramus. The cut surfaces were subjected to electrocoagulation with an electric scalpel for the arrest of bleeding (see FIG. 1).
# This experiment was performed on rats subjected to incision of masseter muscles on both sides and subsequent administration of the SV peptide into the incised left masseter muscle and of PBS into the incised right masseter muscle. Bipolar needle electrodes were retained in the masseter muscles on both sides, and myogenic potential signals received through connectors fixed to both sides of the parietal bone were monitored. Electromyographic (EMG) data were recorded preoperatively and 1 week postoperatively. Generally, in the electromyogram of masseter muscles recorded during food ingestion, the cutting phase and the grinding phase in the masticatory movement show different waveforms. […]
# Lissajous pattern (FIG. 3). […] Based on this, the chewing side preference was determined.
# [2] = system: muscle injury model rats (incised masseter muscles on both sides); experiment: Behavioral physiological experiment (feeding efficiency), Example 2; format: in vivo, Jcl:SD rats
# Protocol: as §1, with “old) under anesthesia in the same manner as in Example 1.” for “old).”, “ng/mL) or 1 mL each of PBS” for “ng/mL)”, “1). […]” for “1).”
# In the same manner as in Example 1, each rat was housed in a transparent plastic cage of 30 cm in length×30 cm in width×30 cm in height at postoperative weeks 1, 2, 4, 6, and 8, and the behavior was recorded on video cameras during the active time of rats (18:00 to 22:00). Food intake and mastication time were measured, and the food intake per unit of mastication time (feeding efficiency) was calculated.
# [3] = system: Human skeletal muscle satellite cells (HskMSCs); experiment: Cell proliferative capacity (WST-1 assay); format: cell-based; details: SV peptide 20 ng/mL; 0-72 hours
# Source text: (§2) Human skeletal muscle satellite cells (HskMSCs) were purchased from ScienCell Research Laboratories and used. The medium used for HskMSC culture was the supplier's recommended medium (Skeletal Muscle Cell Medium containing 5% FBS, Skeletal Muscle Cell Growth Supplement, and penicillin/streptomycin solution).
# Human skeletal muscle satellite cells and human skeletal muscle myoblasts were separately seeded at 1.0×10^4 cells/mL in each well of non-treated polystyrene 96-well cell culture plates (Falcon). The SV peptide (20 ng/mL, SV group), the random SV (20 ng/mL, random SV group), or PBS (PBS group) was added to the medium. The plates were cultured at 37° C. in a 5% CO2 atmosphere. After 0, 12, 24, 48, and 72 hours, cell proliferation was assessed using Premix WST-1 Cell Proliferation Assay System (Takara Bio, Japan).
# [4] = system: Human skeletal muscle satellite cells (HskMSCs); experiment: Chemotactic capacity (Chemotaxicell membrane); format: cell-based; details: SV peptide 20 ng/mL as chemoattractant; 12 hours; vs PBS or random SV
# Protocol: as §2
# (§3) A polycarbonate membrane with a pore size of 8 μm (Chemotaxicell: Kurabo Industries LTD.) was immersed in a 10 μg/mL fibronectin solution at room temperature for 30 minutes for coating the membrane. A medium containing the SV peptide (20 ng/mL, SV group), the random SV (20 ng/mL, random SV group), or PBS (PBS group) as a chemoattractant was added to a lower chamber. On an upper chamber, human skeletal muscle satellite cells and human skeletal muscle myoblasts were separately seeded at 2.0×10^4 cells/mL in DMEM containing 0.1% BSA. A pair of chambers was incubated at 37° C. for 12 hours. The cells on the upper surface of the membrane were removed with a swab, and the membrane was fixed with a 10% neutral buffered formalin solution (Wako Pure Chemical Industries, Ltd.) and stained with hematoxylin. The number of cells migrated to the lower surface of the membrane was measured under an optical microscope.
# [5] = system: Human skeletal muscle myoblasts (HSMMs); experiment: Chemotactic capacity (Chemotaxicell membrane); format: cell-based; details: SV peptide 20 ng/mL as chemoattractant; 12 hours; vs PBS or random SV
# Protocol: Human skeletal muscle myoblasts (HSMMs) were purchased from Lonza and used. The medium used for HSMM culture was the supplier's recommended medium (Skeletal Muscle Growth Media-2 supplemented with SingleQuots Kit).
# as §3
# [6] = system: Human skeletal muscle satellite cells (HskMSCs); experiment: Cell migratory capacity (cell-denuded area); format: cell-based; details: SV peptide 20 ng/mL
# Source text: as §2
# Human skeletal muscle satellite cells and human skeletal muscle myoblasts were separately cultured on 60-mm (diameter) dishes (Iwaki) to 100% confluency. From each dish, a 2-mm-wide strip of cells were removed, and the medium was replaced with a medium containing the SV peptide (20 ng/mL, SV group), the random SV (20 ng/mL, random SV group), or PBS (PBS group). Thereafter, culture was continued. Images were taken with a digital camera mounted on a phase-contrast microscope every 12 hours. The cell-denuded area was measured using the image-analysis software ImageJ (NIH, USA). The cell migration percentage was determined by calculating the percentage of reduction in the cell-denuded area relative to the value immediately after cell removal.
# mesenchymal cell = details: Patent Literature 2; cited from earlier work
substance,measurement,setting,value
SVVYGLR [SV peptide],chewing side preference,"[1]; SV peptide into left, PBS into right masseter muscle",left-side chewing preference was seen postoperatively
same,mean myogenic potential of the left masseter muscle during left-side chewing,"[1]; left = SV peptide side, right = PBS side","reduced postoperatively, but the degree of the reduction was smaller than that in the mean myogenic potential of the right masseter muscle"
same,feeding efficiency (food intake per unit of mastication time),"[2]; postoperative week 8, SV group vs PBS group",significantly higher value than that in the PBS group
same,feeding efficiency (food intake per unit of mastication time),"[2]; time course postoperative weeks 1, 2, 4, 6, 8, relative to week 1 value = 1",time-dependent improvement in feeding efficiency
same,cell proliferative capacity,[3],not enhanced
same,chemotactic capacity (number of cells migrated to lower surface of membrane),[4],"tended to have a higher chemotactic capacity than that of the counterpart in the PBS group or the random SV group, but there was no significant intergroup difference"
same,chemotactic capacity (number of cells migrated to lower surface of membrane),[5],significantly higher chemotactic capacity than that of the counterpart in the PBS group or the random SV group
same,cell migratory capacity,[6],did not affect
same,mesenchymal cell proliferation,mesenchymal cell,promotes mesenchymal cell proliferation
